Patent US6632921B1, “Seryl-lysyl-based peptide and peptidomimetic inhibitors of N-myristoyl transferase as anti-infective agents” (G. D Searle & Co, priority 1995, dated 2003)

Assays:
[1] = test system: C.alb (516); test: Antifungal susceptibility testing, pH 5.4 assay, different strains of Candida; format: cell-based; details: Candida albicans, 24 hr
Experimental: 1) (Assay at DH 5.4/30° C. Incubation/YNB Media).
Antifungal assays were carried out initially by a modification of the method published by Jones, et. al; (1), and communicated to Searle by Dr. Kobayashi, Washington University. [R. N. Jones et al, Manual of Clinical Microbiology, 4th ed., (1985)]
The antifungal susceptibility testing consists of a microdilution broth procedure performed in 96 well microtiter plates (Costar, cat#3799). Briefly, test compounds from a 20 mM stock solution in DMSO are diluted into sterile, deionized water (final DMSO concentration not exceeding 1%), to yield 2× the desired concentration (100 uM, 10 uM and 1 uM for an initial screen, or a selected concentration range in serial 2 fold dilutions for EC50 determination). One hundred microliters (100 ul) of each concentration is dispensed into triplicate wells of a 96 well microtiter plate. Appropriate dilutions of a suspension of C.albicans (1×10^6 cells/ml) in 2× YNB is distributed into each of the wells, including growth control wells containing no test compound as well as control wells with 0.5% DMSO. Amphotericin B at 0.05, 1 and 5 ug/ml is included in each assay plate as a positive control. The plates are incubated at 30° C. and cell growth is scored by reading the absorbance at 590 nm on an Elisa plate reader(Dynatech, MR.5000).

[2] = molecular target: T1, human NMT (Homo sapiens, UniProt P30419); test: NMT enzyme inhibition assay (radiochemical HPLC end-point), human NMT; format: biochemical
T1 construct: made in house; host or cells: E. coli
T1 sequence (P30419 1-416 isoform P30419-2): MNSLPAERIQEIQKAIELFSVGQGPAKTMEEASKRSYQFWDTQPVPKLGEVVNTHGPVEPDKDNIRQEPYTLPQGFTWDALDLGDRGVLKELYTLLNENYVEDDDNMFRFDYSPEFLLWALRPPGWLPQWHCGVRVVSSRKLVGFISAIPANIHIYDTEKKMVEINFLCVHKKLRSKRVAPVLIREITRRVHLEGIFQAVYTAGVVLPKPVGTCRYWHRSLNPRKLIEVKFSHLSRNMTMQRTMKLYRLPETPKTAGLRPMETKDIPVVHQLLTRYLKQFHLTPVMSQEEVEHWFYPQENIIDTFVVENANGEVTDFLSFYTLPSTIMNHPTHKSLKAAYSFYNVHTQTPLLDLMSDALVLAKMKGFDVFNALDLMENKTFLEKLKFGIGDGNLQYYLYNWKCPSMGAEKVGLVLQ
Experimental: Recombinant Candida albicans and human NMTs were expressed and purified from E. coli using previously described protocols. [D. A. Towler et al, Proc. Natl. Acad. Sci. USA, 84, 2707-2712 (1987); R. C. Weigand et al, J. Biol. Chem., 267, 8591-8598 (1992); R. J. Duronio et al, Proc. Natl. Acad. Sci. USA, 89, 4129-4133 (1992)] The ability of compounds to inhibit Candida NMT enzymatic activity was assessed using a radiochemical HPLC end-point assay as described previously for Saccharomyces cerevisiae and human NMTs. [D. Towler et al, Proc. Natl. Acad. Sci. USA, 83, 2812-2816 (1986); W. J. Rocque et al, J. Biol. Chem., 268, 9964-9971 (1991)] The donor substrate [^3H]myristoyl-coenzyme A was enzymatically synthesized from [^3H]myristic acid (50 Ci/mmol, Amersham, Arlington Heights, Ill.) and coenzyme A (Fluka Chemical Corp., Ronkonkoma, N.Y.), and purified as described previously. [W. J. Rocque et al, J. Biol. Chem., 268, 9964-9971 (1991)] The peptide acceptor substrate GNAASARR-NH2 was prepared by solid-phase peptide synthesis using the t-Boc amino acid methodology, followed by HF treatment and reverse-phase HPLC purification. Inhibitor stock solutions were prepared at 22 mM in DMSO; the final concentration of DMSO in each assay was 0.5% (v/v). […] The reaction was quenched after 10 minutes at 24° C. by the addition of ice-cold MeOH, and the reaction products were separated and measured using C4 reverse-phase HPLC (Vydac 214TP10415; Separations Group, Hesperia, Calif.) and in-line scintillation counting using a Radiomatic A250 (Packard Instruments, Downers Grove, Ill.) and Ecolite(+) (ICN Biomedical, Costa Mesa, Calif.) as the scintillant. Selectivity was determined by calculating the ratio of the IC50 against human NMT to the IC50 against C. albicans NMT.

Row | Structure (SMILES) | EC50 [1] [µM] | IC50 ([2]; Comparator Compound A table) [µM] | IC50 ([2]; Table V) [µM]
1 | Cc1nccn1CCCCc1ccc(CC(=O)N[C@H](CO)C(=O)N[C@H](CCCCN)C(=O)N[C@H](CC2CCCCC2)C(=O)O)cc1 [Comparator Compound A, D-Alanine, 3-cyclohexyl-N-[N^2-[N-[[4-[4-(2-methyl-1H-imidazol-1-yl)butyl]phenyl]acetyl]-D-seryl]-D-lysyl]-, bis-trifluoroacetate] | > 250 | > 1000 | 
2 | Cc1nccn1CCCCc1ccc(CC(=O)N[C@@H](CO)C(=O)N[C@@H](CCCCN)C(=O)N[C@@H](CC2CCCCC2)C(=O)O)cc1 [Example 2, L-Alanine, 3-cyclohexyl-N-[N^2-[N-[[4-[4-(2-Methyl-1H-imidazol-1-yl)butyl]phenyl]acetyl]-L-seryl]-L-lysyl]-, bis-trifluoroacetate] | > 250 |  | 810
